Biological target: T1, PTP1B (Homo sapiens, UniProt P18031)
T1 sequence (P18031 1-435): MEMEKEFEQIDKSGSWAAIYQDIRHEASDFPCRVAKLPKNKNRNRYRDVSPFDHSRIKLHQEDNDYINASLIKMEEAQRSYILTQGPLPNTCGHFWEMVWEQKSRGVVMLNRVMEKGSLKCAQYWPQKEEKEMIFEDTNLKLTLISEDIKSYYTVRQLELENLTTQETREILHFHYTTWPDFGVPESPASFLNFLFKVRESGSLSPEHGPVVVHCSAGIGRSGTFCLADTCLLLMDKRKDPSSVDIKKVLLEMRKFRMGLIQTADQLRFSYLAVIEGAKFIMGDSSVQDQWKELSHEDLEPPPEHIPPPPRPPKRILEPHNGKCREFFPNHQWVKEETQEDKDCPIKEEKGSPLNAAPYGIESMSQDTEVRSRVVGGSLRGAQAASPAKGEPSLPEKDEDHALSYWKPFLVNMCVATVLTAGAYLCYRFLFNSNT
Assay: competition with BiPhYn-1 labelling of PTP1B in cells
Format: cell-based

C=CS(=O)(=O)c1ccccc1 [PVSF, phenyl vinyl sulfone]
competition with BiPhYn-1 labelling of PTP1B in cells: exhibited loss of detection of oxidized PTP1B with BiPhYn-1 in the presence of increasing concentrations of PVSF

Source: publication PMC4254195 (European journal of medicinal chemistry, 2014)
